Experimental data as given in US20250057958A1, “CYTOTOXICITY TARGETING CHIMERAS FOR CCR2-EXPRESSING CELLS” (GLAXOSMITHKLINE INTELLECTUAL PROPERTY DEVELOPMENT LIMITED, priority 2022, published 2025).

Tests used:
[1] = molecular target: T1, CHOK1 cells engineered to overexpress human CCR2 (Homo sapiens, UniProt P41597); test: Antibody dependent cellular cytotoxicity (ADCC) reporter assay; type: cell-based; details: with anti-cotinine antibody (SEQ ID NO: 11/12, human IgG1 Fc S239D/I332E); Jurkat FcγRIIIa NFAT-luciferase reporter cells; 12-18 hours; average if more than one run; read-out: ADCC Reporter Assay pEC50 (converted)
T1 construct: expressed in transfected cells; host or cells: CHOK1 cells
Procedure: An antibody dependent cellular cytoxocity reporter assay was conducted using the following four assay components: (i) ARM compound of Formula (I) targeting CCR2 (concentrations ranging from 1 pM to 10 μM) (ii) anti-cotinine antibody having a heavy chain sequence of SEQ ID NO: 11 and a light chain sequence of SEQ ID NO: 12 (rabbit variable region with human IgG1 Fc domain containing a DE mutation (S239D/I332E)) (concentrations ranging from 0.01 μg/mL to 200 μg/mL); (iii) target cells: CHOK1 cells engineered to overexpress either human CCR2 (typically 1000-20,000 cells perwell) and (iv) reporter cells: Jurkat cells engineered to express FcγRIIIa with the reporter gene luciferase under the control of the NFAT promoter (typically 3000-75,000 cells per well). Reagents were combined in a final volume of 20 μL in a 384—well tissue culture treated plate. All four assay components were incubated together for about 12-18 hours. Thereafter, BioGlo Detection reagent (Promega) was added to the wells to lyse the cells and provide a substrate for the luciferase reporter protein. Luminescence signal was measured on a microplate reader and signal:background was calculated by dividing the signal of a test well by the signal obtained when no ARM compound of Formula (I) was added. EC50 calculations were done using Graphpad Prism Software, specifically a nonlinear regression curve fit (Y=Bottom+(Top−Bottom)/(1+10 ^((Log EC50−X)*HillSlope))).
ARMs compounds of Formula (I) of the invention were tested for ADCC activity in the above assay in or more experimental runs and the results are shown in Table 3 below. Potency of the compounds of Formula (I) of the invention is reported as a pEC50 value. The pEC50 value is the negative log of the EC50 value, wherein the EC50 value is the half maximal effective concentration measured in molar (M). For compounds tested in more than one experimental run, the pEC50 value is reported as an average.

[2] = Blood drug concentration analysis (PK) in the in vivo depletion assay; design: species or system human CCR2 (hCCR2) knock-in mice; details: human CCR2 (hCCR2) knock-in, C57 background, mouse, whole blood, LC-MS/MS, IV bolus 0.1 mpk compound + 10 mpk anti-cotinine antibody, 48 hours post-dose, read-out: Exposure of Compound of Formula (I) 48 hours post-dose
Procedure: Human CCR2 (hCCR2) knock-in mice (C57 background) were dosed intravenously with a PBS solution containing a compound of Formula (I) to measure depletion of CCR2 expressing cells in peripheral blood. Peripheral blood from IV dosed mice was also analyzed to determine PK properties of the compounds of Formula (I).
Administration to Animal: Solution formulation of antibody and compound of Formula (I) was injected (bolus injection) to the restrained mouse in the right/left lateral tail vein. Animals were dosed with 0.1 milligram per kilogram (mpk) of the compound of Formula (I) and 10 mpk of the anti-cotinine antibody.
Collection of Blood for PK: Blood was collected at time points 0.25 hour, 2 hours, and […] following administration (50 μL/time point) through retro-orbital bleeding under mild isoflurane anesthesia.
Terminal bleeding at end of experiment (48 hr): Approximately 250 μL of blood in K2EDTA tube and approximately 250 μL of blood in SST (serum separation tube) was collected from each mouse through retro-orbital bleeding under deep isoflurane anesthesia. After bleeding, each mouse was sacrificed by cervical dislocation. The blood distribution at termination was determined as follows: • For PK: 50 μL of K2EDTA blood was transferred to another tube for PK • Flow cytometry: Remaining blood (˜200 μL) was used for flow cytometry analysis. • For serum collection: serum separator tubes (BD) were centrifuged at 4° C., 5000 rpm for 15 minutes. Approximately 100 μL serum was separated and stored at −80° C. for further usage. • Blood drug concentration: Samples collected at the various timepoints (0.25 hr, 2 hr, 24 and 48 hr) were analyzed to determine blood drug concentration.
Blood drug concentration analysis: Drug concentration in blood samples was determined by an LC-MS/MS-based bioanalytical method developed at Syngene. Samples were analyzed on Q-Trap, API-5500 LC-MS/MS system coupled with Exion UHPLC system from SCIEX, USA operated in multiple reaction monitoring mode employing electrospray ionization technique in positive polarity. Analyte and internal standard peaks were resolved on Synergi Polar, 75×2.0 mm, 4 μcolumn using mobile phase 10 mM Ammonium acetate in Milli-Q water as phase A and 0.1% Formic acid in acetonitrile as Phase B. Gradient elution was performed with initial composition 95% Phase A at 0.0 min, holding it for 0.2 minutes, ramping to 5% by 1.0 minute, keeping the same for next 0.5 minutes and coming back to 95% by 1.6 minutes. The total run time was 2 minutes.
Working dilutions for calibration curve and quality control standards were prepared by serially diluting 20 mg/mL stock solution with DMSO. Spiked concentrations for calibration curve in the whole blood ranged from 1 ng/mL to 1000 ng/mL. […]

Structure (SMILES)	EC50 [1]	concentration at 48 h [2]
CC(=O)N[C@@H]1C[C@H](NC(C)(C)C)CC[C@@H]1N1CC[C@H](Nc2nc([C@H]3CC[C@H](NC(=O)[C@H]4CC[C@H](NC(=O)CCCO[C@H]5CC[C@H](OCCNC(=O)[C@H]6CC(=O)N(C)[C@@H]6c6cccnc6)CC5)CC4)CC3)nc3ccc(C(F)(F)F)cc23)C1=O [Example 11, (2S,3S)-N-(2-(((1R,4S)-4-(4-(((1S,4R)-4-(((1S,4R)-4-(4-(((S)-1-((1S,2R,4R)-2-Acetamido-4-(tert-butylamino)cyclohexyl)-2-oxopyrrolidin-3-yl)amino)-6-(trifluoromethyl)quinazolin-2-yl)cyclohexyl)carbamoyl)cyclohexyl)amino)-4-oxobutoxy)cyclohexyl)oxy)ethyl)-1-methyl-5-oxo-2-(pyridin-3-yl)pyrrolidine-3-carboxamide]	0.158 nM	93.4 ng/mL
CC(=O)N[C@@H]1C[C@H](NC(C)(C)C)CC[C@@H]1N1CC[C@H](Nc2nc(CCCCNC(=O)[C@H]3CC[C@H](NC(=O)CCCO[C@H]4CC[C@H](OCCNC(=O)[C@H]5CC(=O)N(C)[C@@H]5c5cccnc5)CC4)CC3)nc3ccc(C(F)(F)F)cc23)C1=O [Example 3, (2S,3S)-N-(2-(((1R,4S)-4-(4-(((1S,4R)-4-((4-(4-(((S)-1-((1S,2R,4R)-2-Acetamido-4-(tert-butylamino)cyclohexyl)-2-oxopyrrolidin-3-yl)amino)-6-(trifluoromethyl)quinazolin-2-yl)butyl)carbamoyl)cyclohexyl)amino)-4-oxobutoxy)cyclohexyl)oxy)ethyl)-1-methyl-5-oxo-2-(pyridin-3-yl)pyrrolidine-3-carboxamide]	0.158 nM	37.1 ng/mL
CC(=O)N[C@@H]1C[C@H](NC(C)(C)C)CC[C@@H]1N1CC[C@H](Nc2nc([C@H]3CC[C@@H](NC(=O)[C@H]4CC[C@H](NC(=O)CCCO[C@H]5CC[C@H](OCCNC(=O)[C@H]6CC(=O)N(C)[C@@H]6c6cccnc6)CC5)CC4)CC3)nc3ccc(C(F)(F)F)cc23)C1=O [Example 10, (2S,3S)-N-(2-(((1R,4S)-4-(4-(((1R,4R)-4-(((1R,4S)-4-(4-(((S)-1-((1S,2R,4R)-2-Acetamido-4-(tert-butylamino)cyclohexyl)-2-oxopyrrolidin-3-yl)amino)-6-(trifluoromethyl)quinazolin-2-yl)cyclohexyl)carbamoyl)cyclohexyl)amino)-4-oxobutoxy)cyclohexyl)oxy)ethyl)-1-methyl-5-oxo-2-(pyridin-3-yl)pyrrolidine-3-carboxamide]	0.251 nM	35.5 ng/mL
